According to patent US12447198B2, “Peptides and fragments for treating diabetes and associated metabolic diseases” (Betavive Ltd., priority 2021, dated 2025):
“Also recorded” adds a separate entry of the source.

Experiments:
NOD mice [1] = assay: Incidence of spontaneous autoimmune type 1 diabetes / normoglycemia in NOD mice; assay type: in vivo, mouse
Description: Non-Obese Diabetic (NOD) mice are a polygenic model for spontaneous autoimmune type 1 diabetes (T1D). NOD mice have an elevated risk for development of autoimmune type 1 diabetes. Thus, NOD mice were used to determine whether treatment IGF-2 reduces spontaneous development of type 1 diabetes.
In this experiment, one group of NOD mice (right panel) was injected with 3000 μg/kg of IGF-2 on each of 76 consecutive days, and a second group of NOD mice (left panel) was injected with saline. […] More specifically, at the end of the 76 days of treatment, only two of the treated mice had developed high glucose levels.
FIG. 30A depicts how many NOD mice have developed autoimmune type I diabetes during an initial 66 days of treatment with IGF-2, and at various intervals post-treatment. In this experiment, one group of NOD mice was injected with 3000 μg/kg of IGF-2 on each of 66 consecutive days, and a second group of NOD mice was injected with saline.
(§1) In one exemplary experiment, NOD mice were treated with a 3000 μg/kg daily doses of IGF-2 for 150 days. ⅘ of the treated mice maintained normoglycemia compared to ¼ of the control mice. In another exemplary experiment, NOD mice were treated with a 3000 μg/kg daily dose of IGF-2 for 75 days with follow-up glucose measurements taken for an additional 90 days (during which IGF-2 was not administered). ⅝ of the treated mice maintained normoglycemia compared to 2/11 of the control mice.

C57BL/6 STZ mice = assay: Fasting blood glucose in STZ-induced diabetic C57BL/6 mice treated with IGF-2; assay type: in vivo, mouse; conditions: for fasting glucose levels during the ten-day course of treatment: day 0 and ten more times within ten days
Description: C57BL/6 mice male 8-10 weeks old, housed under conventional conditions and allowed laboratory chow and water ad libitum, were used in the experiments described below in Examples 3-4. Within each experiment, animals were matched by age and weight (20-24 g) and randomly divided into groups to receive different treatments. Diabetes was induced by one or more doses of streptozotocin (STZ).
Briefly, animals received intraperitoneally (i.p.) 100 mg/kg (b.w.) STZ (Cayman Chemical, Ann Arbor, MI) dissolved in citrate buffer on pH 4.5 (this procedure was repeated if needed). Clinical diabetes was defined by hyperglycemia (blood glucose levels >300 mg/dl in fasted animals). Fasting blood glucose levels were measured three times per week and samples were taken from the tail tip after starvation for 6 hours throughout the experiment.
Fasting blood glucose levels (mg/dL) were determined using the Accu-Chek Performa glucometer (Roche Diagnostics, Mannheim, Germany). After approximately two weeks of stable hyperglycemia, C57BL/6 STZ mice received exogenous injections of recombinant human IGF-2 (0.3-12 mg/kg/day injection) intraperitoneally for 5-10 consecutive days. During post-treatment follow-up period and upon termination, mice were tested for: fasting glucose, body weight, glucose tolerance test (IPGTT), serum C-peptide level, serum insulin level, and full blood and histological analysis (CBC, Chemistry, Insulin IHC and H&E).

β-MIN6 cells = assay: Insulin secretion of β-MIN6 cells following glucose induction; assay type: cell-based, mouse; conditions: 1 week treatment; IGF-2 5 nM, 20 nM, 80 nM
Description: β-MIN6 cells serve as an in vitro model of mouse pancreatic islets. β-MIN6 cells were used as an in vitro model to measure the effects of treatment with IGF-2.

[2] = Blood level of total and free IGF-2 after 40 μg intraperitoneal injection (ELISA); assay type: in vivo, mouse; conditions: 240 minute time frame
Description: Without being bound by this theory, it is believed that IGF-2 binding proteins may initially inactivate the biological activity of free IGF-2. And over time, the bond between IGF-2 and the binding protein may be released, increasing the bioavailability of IGF-2 and leading to a longer term effective treatment.

STZ-treated mice = assay: Short term effects of a single IGF-2 injection on glucose and IGF-2 levels, 240 minute time course; assay type: in vivo, mouse
Description: More specifically, the top panel illustrates the drop in glucose blood levels in three STZ-treated mice after receiving a 800 μg/kg/day dose of IGF-2 over a 240 minute time course. […] IGF-2 is part of a complex system comprising IGF-1 and IGF-2 along with binding proteins, proteases and other interacting molecules. […] Normoglycemia is maintained while total serum IGF-2 is reduced to very low levels. […] Without being bound by this theory, it is believed that a slow release of IGF-2 from a serum complex can maintain normal blood glucose levels.

db/db mice = assay: Histopathology and immunohistochemical staining of pancreas islet cells in db/db mice; assay type: in vivo, mouse; conditions: sacrificed 70 days after the end of treatment
Description: FIG. 27 provides results of histopathology and immunohistochemical studies showing the number of pancreas islet cells that test positive for insulin (left panel) and glucagon (right panel) in db/db mice. In this experiment, one group of db/db mice was injected with 12000 μg/kg of IGF-2 on each of 70 consecutive days, a second group of db/db mice was injected with saline, and a third group of db/db mice was a naïve control group. The mice were sacrificed for pathology 70 days after the end of the initial 70 day treatment.
In this experiment, one group of db/db mice (labeled X4) was injected with 12000 μg/kg of IGF-2 on each of 70 consecutive days, a second group of db/db mice (labeled X1) was injected with 3000 μg/kg of IGF-2 on each of 70 consecutive days, and a third group of db/db mice (labeled control) was injected with saline. The mice were sacrificed for pathology 70 days after the end of the initial 70 day treatment. […] The control panels show a positive stain for insulin, which increases in intensity in the 3000 μg/kg/day mice, and increases again in intensity in the 12,000 μg/kg/day mice.

NOD mice [3] = assay: Serum insulin / insulin secretion in NOD mice treated with IGF-2; assay type: in vivo, mouse
Description: FIG. 30B depicts the levels of serum insulin in NOD mice measured two weeks after a 66 day course of treatment using IGF-2. Mice that were treated with 3000 μg/kg/day of IGF-2 had serum insulin levels that were about 4-fold higher than the control mice.
as §1

insulin-like growth factor 2 [IGF-2]
fraction of the treated mice that maintained normoglycemia (NOD mice [1]; 3000 μg/kg daily dose for 75 days, follow-up for an additional 90 days, control 2/11): ⅝
fraction of the treated mice that maintained normoglycemia (NOD mice [1]; 3000 μg/kg daily doses for 150 days, control ¼): ⅘
incidence of spontaneous autoimmune type 1 diabetes (NOD mice [1]; 3000 μg/kg on each of 66 consecutive days and post-treatment, vs saline control): significantly reduced
incidence of spontaneous autoimmune attack (NOD mice [1]; 3000 μg/kg on each of 76 consecutive days vs saline): reduced dramatically
number of treated mice that had developed high glucose levels (NOD mice [1]; 3000 μg/kg, at the end of the 76 days of treatment): two
hypoglycemia (C57BL/6 STZ mice; 3000 μg/kg/day, also when the dose was increased to 12,000 μg/kg/day): Hypoglycemia was never observed
hypoglycemia (C57BL/6 STZ mice; 10:1 ratio of dosages, between 3000 μg and 300 μg): did not cause hypoglycemia
fasting glucose levels during and shortly after the course of treatment (C57BL/6 STZ mice; IGF-2 300 μg/kg/day, initial dose and ten additional doses over ten days, STZ mice B5, B6, B3, B4): did not return to a normal range; also recorded: temporary drop in fasting glucose levels from days 10-25
long-term results on fasting glucose levels (C57BL/6 STZ mice; IGF-2 300 μg/kg/day, STZ mice B5, B3, B4): long-term results were not observed
fasting glucose levels during the ten-day course of treatment (C57BL/6 STZ mice; IGF-2 800 μg/kg/day, STZ mice A8, A6, F3, F4): returned to a normal range
blood glucose levels remaining, mice with full or almost full resolution (C57BL/6 STZ mice; IGF-2 800 μg/kg/day, half the mice (FIGS. 5A and 5B)): ~200 mg/dL
fasting glucose levels after the course of treatment (long term) (C57BL/6 STZ mice; IGF-2 800 μg/kg/day, mice A8 and A6): remained in the normal range until the end of the experiment; also recorded: remained in the normal range until STZ was provided again
fasting glucose levels after the ten day course of injections ended (C57BL/6 STZ mice; IGF-2 800 μg/kg/day, mice F3 and F4): around 400
blood glucose levels remaining, mice with partial improvement (C57BL/6 STZ mice; IGF-2 800 μg/kg/day, the remaining mice (FIGS. 6A and 6B)): ~400 mg/dL
fasting glucose levels during the ten-day course of treatment (C57BL/6 STZ mice; IGF-2 3000 μg/kg/day, STZ mice C1, C8, C6, F1): returned to a normal range
long-term improvements in blood glucose levels (C57BL/6 STZ mice; IGF-2 12,000 μg/kg daily on each of 12 consecutive days): long-term improvements in blood glucose levels were obtained
long-term improvements in blood glucose levels (C57BL/6 STZ mice; IGF-2 12,000 μg/kg daily on only 5 consecutive days): long-term improvements in blood glucose levels were not obtained
time to reduce the blood glucose level to a normal range (C57BL/6 STZ mice; daily intraperitoneal 3000 μg/kg/day, averaged over four mice): 3 to 5 days
blood glucose level reached (normal range), averaged over four mice (C57BL/6 STZ mice; daily intraperitoneal 3000 μg/kg/day, maintained for the remainder of the 10 day window): 100 to 200 mg/dL
time post treatment for which normal blood glucose levels are maintained (C57BL/6 STZ mice; four mice, single 10 day course at 3000 μg/kg/day, long term follow up): at least 300 days
insulin secretion following glucose induction (β-MIN6 cells): increases insulin secretion (following glucose induction) in a dose-dependent manner
peak free IGF-2 in the blood [2]: 1 µg
peak total concentration of IGF-2 total in the blood [2]: about 16 μg
free IGF-2 levels relative to total IGF-2 (STZ-treated mice; 800 μg/kg dose, 240 minute time course): a small fraction of the total IGF-2 concentration
period for which the normal blood glucose level lasts (STZ-treated mice; single 800 μg/kg dose intraperitoneally): over four hours
blood glucose level reached (normal level) (STZ-treated mice; single 800 μg/kg dose intraperitoneally, from hyperglycemic levels of 300-500 mg/dl): 100 to 200 mg/dL
increase in the number of insulin-positive cells (db/db mice; 12000 μg/kg on each of 70 consecutive days): more than 50%
insulin positive cells (immunohistochemical staining) (db/db mice; 3000 and 12000 μg/kg on each of 70 consecutive days vs saline): increase in insulin positive cells in a dose-dependent manner
serum insulin levels relative to the control mice (NOD mice [3]; 3000 μg/kg/day, two weeks after a 66 day course of treatment): about 4 fold
average insulin secretion of the treated mice (NOD mice [3]; both NOD experiments of Example 14, 3000 μg/kg daily): five times greater than the control mice
